One experiment has as its target T1, Hsp90 (Homo sapiens, UniProt P07900).
T1 construct: purchased Stressgen SPP-776
Put plainly: Fluorescence polarization (FP) binding assay, displacement of GM-BODIPY. Particulars: GM-BODIPY tracer, 125 nM Hsp90, 4 h at 4° C.; read-out: F.P. binding assay IC50. Here is the method: Fluorescence Polarization (FP)
GM-BODIPY (PerkinElmer, CUSN60342000MG) was previously dissolved in DMSO to obtain 10 mM stock solutions and kept at −20° C. until use.
The compounds were previously dissolved in DMSO to obtain stock solutions and kept at −20° C. The day of experiment, the compounds were prepared by serial dilutions in HFB. Before each use, 0.1 mg/ml Bovine Gamma globulin and 2 mM DTT were freshly added.
The plate was mixed on a shaker at 4° C. for 4 hours, and the FP values in mP (millipolarization units) were recorded. […] Curve fitting was performed using Prism GraphPad software program (GraphPad software, Inc., San Diego, Calif.).
Curve fitting was performed using Prism GraphPad software program (GraphPad software, Inc., San Diego, Calif.).
For orientation: In fluorescence polarisation assays a small probe gives low polarisation when free and higher when bound to something large.

The test system of experiment [1] is NCI-H460 non-small cell lung carcinoma cells. Put plainly: Cytotoxicity assay (sulphorodamine B test), NCI-H460. It counts as cell-based. Particulars: Homo sapiens, NCI-H460, 72-h exposure. The method, then: To evaluate the effect of the compounds on cells survival, the sulphorodamine B test was used. To test the effects of the compounds on cell growth, NCI-H460 non-small cell lung carcinoma cells were used. Tumour cells were grown in RPMI 1640 containing 10% fetal bovine serum (GIBCO).
(§1) Tumour cells were seeded in 96-well tissue culture plates at approximately 10% confluence and were allowed to attach and recover for at least 24 h. Varying concentrations of the drugs were then added to each well to calculate their IC50 value (the concentration which inhibits the 50% of cell survival). The plates were incubated at 37° C. for 72 h. At the end of the treatment, the plates were washed by removal of the supernatant and addition of phosphate buffered saline (PBS) 3 times. 200 μl PBS and 50 μl of cold 80% trichloroacetic acid (TCA) were added. The plates were incubated on ice for at least 1 h. TCA was removed, the plates were washed 3 times by immersion in distilled water and dried on paper and at 40° C. for 5 min. Then 200 μl of 0.4% sulphorodamine B in 1% acetic acid were added. The plates were incubated at RT for 30 min. Sulphorodamine B was removed, the plates were washed by immersion in 1% acetic acid for 3 times, then they were dried on paper and at 40° C. for 5 min. Then, 200 μl Tris 10 mM were added, the plates were kept under stirring for 20 min. The cell survival was determined as optical density by a Multiskan spectrofluorimeter at 540 nm. The amount of cells killed was calculated as the percentage decrease in sulphorodamine B binding compared with control cultures.
(§2) The IC50 values were calculated with the “ALLFIT” program.
(§3) The antiproliferative IC50 was evaluated as drug concentration required for 50% reduction of cell growth as compared with untreated controls after 72-h exposure to the drug. The IC50±SD values reported were calculated by ALLFIT program.

In experiment [2] the test system is human epithelial carcinoma cell line A431. Put plainly: Cytotoxicity assay (sulphorodamine B test), A431. It is filed as cell-based. Particulars: Homo sapiens, A-431, 72-h exposure. The method, then:
as §1, §2
The antiproliferative activity of novel Hsp90 inhibitors was evaluated on NCI-H460 non-small cell lung carcinoma cells and on a human epithelial carcinoma cell line A431.
as §3

In the case of `CCNC(=O)c1noc(-c2cc(C(C)C)c(O)cc2O)c1NC(=O)c1ccc2cc[nH]c2c1` [Example 17, 1H-indole-6-carboxylic acid [5-(2,4-dihydroxy-5-isopropyl-phenyl)-3-ethylcarbamoyl-isoxazol-4-yl]-amide], the half-inhibitory concentration (IC50) on Hsp90 is under 100 nM; in experiment [1] it was 100 to 1000 nM; in experiment [2], 100 to 1000 nM.
In the case of `CCNC(=O)c1noc(-c2cc(C(C)C)c(O)cc2O)c1NC(=O)C1CCCCC1` [Example 19, 4-(cyclohexanecarbonyl-amino)-5-(2,4-dihydroxy-5-isopropyl-phenyl)-isoxazole-3-carboxylic acid ethylamide], the values for the IC50 (on Hsp90; in experiment [1]; in experiment [2]) were 100 to 1000 nM, under 100 nM and under 100 nM, respectively.
As for `CCCCC[C@H]1CC[C@H](C(=O)Nc2c(C(=O)NCC)noc2-c2cc(C(C)C)c(O)cc2O)CC1` [Example 20, 5-(2,4-dihydroxy-5-isopropyl-phenyl)-4-[(trans-4-pentyl-cyclohexanecarbonyl)-amino]-isoxazole-3-carboxylic acid ethylamide], the half-inhibitory concentration (IC50) at Hsp90 lay within 100 to 1000 nM; in experiment [1], 1000 to 10000 nM; in experiment [2] it was 1000 to 10000 nM.
Take `CCNC(=O)c1noc(-c2cc(C(C)C)c(O)cc2O)c1NC(=O)C1CCC(C(F)(F)F)CC1` (stereo not drawn) [Example 21, 5-(2,4-dihydroxy-5-isopropyl-phenyl)-4-[(4-trifluoromethyl-cyclohexanecarbonyl)-amino]-isoxazole-3-carboxylic acid ethylamide]: the concentration for half-maximal inhibition (IC50) was 100 to 1000 nM on Hsp90, under 100 nM in experiment [1] and under 100 nM in experiment [2].
Regarding `CCNC(=O)c1cc(C(=O)Nc2c(C(=O)NCC)noc2-c2cc(C(C)C)c(O)cc2O)on1` [Example 22, N^5-(3-(ethylcarbamoyl)-5-(2,4-dihydroxy-5-isopropylphenyl)-isoxazol-4-yl)-N^3-ethylisoxazole-3,5-dicarboxamide], the results for the IC50 (on Hsp90; in experiment [1]; in experiment [2]) were under 100 nM, 1000 to 10000 nM and 1000 to 10000 nM, respectively.
Consider `CCNC(=O)c1noc(-c2cc(Cl)c(O)cc2O)c1NCc1ccc(OC)cc1` [Example 27, 4-(4-methoxybenzylamino)-5-(5-chloro-2,4-dihydroxyphenyl)-N-ethylisoxazole-3-carboxamide], for which the concentration for half-maximal inhibition (IC50) fell in the range of 100 to 1000 nM at Hsp90, 1000 to 10000 nM in experiment [1] and 1000 to 10000 nM in experiment [2].
As for `CCNC(=O)c1noc(-c2cc(Cl)c(O)cc2O)c1NCc1sccc1C` [Example 28, 4-((3-methylthiophen-2-yl)methylamino)-5-(5-chloro-2,4-dihydroxyphenyl)-N-ethylisoxazole-3-carboxamide], the IC50 lay in the range of 100 to 1000 nM on Hsp90, 1000 to 10000 nM in experiment [1] and 1000 to 10000 nM in experiment [2].
On to `CCNC(=O)c1noc(-c2cc(Cl)c(O)cc2O)c1NC1CCCCC1` [Example 29, 5-(5-chloro-2,4-dihydroxyphenyl)-4-(cyclohexylamino)-N-ethylisoxazole-3-carboxamide], for which the IC50 is 100 to 1000 nM at Hsp90, 1000 to 10000 nM in experiment [1] and 1000 to 10000 nM in experiment [2].
Consider `CCNC(=O)c1noc(-c2cc(Cl)c(O)cc2O)c1NC1CCN(C)CC1` [Example 30, 4-(1-methylpiperidin-4-ylamino)-5-(5-chloro-2,4-dihydroxyphenyl)-N-ethylisoxazole-3-carboxamide], for which the IC50 (on Hsp90; in experiment [1]; in experiment [2]) was 1000 to 10000 nM in each case.
In the case of `CCNC(=O)c1noc(-c2cc(Cl)c(O)cc2O)c1NCc1cc(C(=O)OC)no1` [Example 31, Methyl 5-((3-(ethylcarbamoyl)-5-(5-chloro-2,4-dihydroxyphenyl)isoxazol-4-ylamino)methyl)isoxazole-3-carboxylate], the 50% inhibitory concentration (IC50) on Hsp90 is under 100 nM; in experiment [1], 1000 to 10000 nM; in experiment [2], 1000 to 10000 nM.
`CCNC(=O)c1noc(-c2cc(Cl)c(O)cc2O)c1NCc1cc(CO)no1` [Example 32, 4-((3-(hydroxymethyl)isoxazol-5-yl)methylamino)-5-(5-chloro-2,4-dihydroxyphenyl)-N-ethylisoxazole-3-carboxamide]: the results for the half-maximal inhibitory concentration (IC50) (at Hsp90; in experiment [1]; in experiment [2]) were 100 to 1000 nM, 1000 to 10000 nM and 1000 to 10000 nM, respectively.
On to `COc1ccc(C(=O)Nc2c(C(=O)NCC(F)(F)F)noc2-c2cc(Cl)c(O)cc2O)cc1` [Example 33, 4-(4-methoxybenzamido)-5-(5-chloro-2,4-dihydroxyphenyl)-N-(2,2,2-trifluoroethyl)-isoxazole-3-carboxamide], for which the IC50 fell in the range of 100 to 1000 nM on Hsp90, 1000 to 10000 nM in experiment [1] and 100 to 1000 nM in experiment [2].

As a reminder, the IC50 is the midpoint of a concentration-inhibition curve.

The values are drawn from patent publication US8383616B2, “Aryl isoxazole compounds with antitumoural activities” (Sigma-Tau Industrie Farmaceutiche Riunite SpA, priority 2008, dated 2013).
